One experiment deals with mouse iBMDMs. Briefly: Processing of caspase-1, GSDMD and IL-1β in iBMDMs (immunoblot). The experiment is classed as cell-based. The note with it: 1 hr time point. As for the experimental part: FIG. 97 contains a bar graph showing results of an experiment where LPS-primed THP-1 cells, after medium removal, were incubated with probe FAM-YVAD-FMK in FLICA assay buffer for another 0.5 hr before fluorescence reading. iBMDMs were pretreated with disulfiram, Bay 11-7082, necrosulfonamide (NSA) or z-VAD-fmk for 1 hr before treated or not with Nigericin for 0.5 hr. Whole cell lysates and culture supernatants were immunoblotted with the indicated antibodies.
FIG. 98 contains a bar graph showing results of an experiment where LPS-primed THP-1 cells, after medium removal, were incubated with probe FAM-YVAD-FMK in FLICA assay buffer for another 0.5 hr before fluorescence reading. iBMDMs were pretreated with disulfiram, Bay 11-7082, necrosulfonamide (NSA) or z-VAD-fmk for 1 hr before treated or not with Nigericin for 1 hr. Whole cell lysates and culture supernatants were immunoblotted with the indicated antibodies.
Canonical inflammasome assembly activates caspase-1, which cleaves pro-IL-1β and GSDMD, and the latter is needed to release processed IL-1β and to induce pyroptosis. To assess which steps in NLRP3-mediated inflammation were inhibited post ASC speck formation, LPS-primed THP-1 cells were treated with vehicle, 30 μM z-VAD-fmk or disulfiram 1 hour before adding nigericin, and cleavage and activation of caspase-1, GSDMD, and pro-IL-1β were analysed by immunoblot of whole cell lysates 30 min later and 1 hr later. Secretion of processed IL-1β was also assessed by immunoblot of culture supernatants. […] The 1 hr time point is relevant as the cell death and IL-1β release measurements used cells stimulated with nigericin for 1 and 2 hrs, respectively.
A general note: A western blot detects proteins with antibodies after separation by electrophoresis.

The target of the next experiment is T1, human GSDMD-3C (Homo sapiens, UniProt P57764).
T1 sequence (P57764 1-271 limits assumed): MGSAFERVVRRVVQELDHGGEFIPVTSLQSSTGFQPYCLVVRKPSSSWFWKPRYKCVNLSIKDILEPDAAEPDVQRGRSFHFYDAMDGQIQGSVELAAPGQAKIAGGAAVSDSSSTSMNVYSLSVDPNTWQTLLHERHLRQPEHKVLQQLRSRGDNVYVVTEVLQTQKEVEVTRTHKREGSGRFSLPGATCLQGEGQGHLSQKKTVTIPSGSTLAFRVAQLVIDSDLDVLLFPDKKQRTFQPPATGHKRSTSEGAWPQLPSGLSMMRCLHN
Nature of the experiment: Liposome leakage assay, GSDMD-3C plus 3C protease. The experiment is classed as biochemical. More on the design: Human GSDMD-3C and mouse GSDMA3-3C mutants were constructed by QuikChange Mutagenesis (Agilent Technologies); fused on or other part: His6-MBP tag, removed by TEV before use; The engineered 3C site is cut in the well by 3C protease. As for the experimental part:
Liposome leakage assay: fluorogenic liposome leakage assay detects leakage of Tb^3+ from Tb^3+-loaded liposomes incubated with GSDMD and caspase-11 (See References 7 and 9). Liposome leakage was detected by an increase in fluorescence when Tb^3+ bound to dipicolinic acid (DPA) in Buffer C. […] The fluorescence intensity of the well was measured at 545 nm with an excitation of 276 nm 1 hr after addition of caspase-11 using a Perkin Elmer EnVision plate reader. The final percent inhibition was calculated as [(fluorescencetest compound−fluorescencenegative control)/(fluorescencepositive control−fluorescencenegative control)]×100, where a well with GSDMD without the test compound was used as positive control, and a well without caspase-11 was used as negative control.
[LC retention time. […] (b).
To determine the relative contribution of caspase-11 inhibition versus GSDMD inhibition by disulfiram in pore formation, the caspase cleavage site in GSDMD was replaced with the rhinovirus 3C protease site (GSDMD-3C) and the 3C protease was used instead of caspase-11 in the liposome leakage assay.

For the next experiment, the system named is IL-1β. Nature of the experiment: IL-1β secretion by ELISA, THP-1 plus nigericin. The format is cell-based, human. The note with it: THP-1, 40 μM. As for the experimental part:
Measurement of cytokines: concentrations of IL-1 (3 in culture supernatants or mouse serum were measured by ELISA kit (R&D Systems) according to the manufacturer's instructions. […] The number of surviving cells was determined by CellTiter-Glo assay (FIGS. 4 and 6) and IL-1β in culture supernatants was assessed by ELISA (FIG. 8) 2 hrs later. […] The number of surviving cells was determined by CellTiter-Glo assay (FIGS. 5 and 7) and IL-1β in culture supernatants was assessed by ELISA (FIG. 9) 2.5 hrs later.
A general note: ELISA stands for enzyme-linked immunosorbent assay.

The test system of another experiment is HEK293T cells. Briefly: LDH release of HEK293T cells expressing caspase-11 and GSDMD. The experiment is classed as cell-based. As for the experimental part: FIG. 72 contains a bar graph showing results of an experiment when FL human WT or C191S GSDMD were co-expressed with caspase-11 in HEK293T cells. 8 h post transfection, the indicated amount of disulfiram was added and cell death was determined by LDH release 12 h later.
Cytotoxicity and cell viability assays: cell death and cell viability were determined by the lactate dehydrogenase release assay using the CytoTox 96 Non-Radioactive Cytotoxicity Assay kit (Promega) and by measuring ATP levels using the CellTiter-Glo Luminescent Cell Viability Assay (Promega), respectively, according to the manufacturer's instructions. Luminescence and absorbance were measured on a BioTek Synergy 2 plate reader.
To further confirm that disulfiram acts on Cys191, disulfiram inhibition of LDH release in HEK293T cells expressing caspase-11 and WT or C191S GSDMD was assessed.

For experiment [1], the system named is caspase-1, GSDMD, and pro-IL-1β. Nature of the experiment: Caspase-1, GSDMD, pro-IL-1β cleavage and IL-1β secretion by immunoblot, THP-1. The experiment is classed as cell-based, human.

As to `Cc1ccc(S(=O)(=O)/C=C/C#N)cc1` [Bay 11-7082], in the experiment on mouse iBMDMs, the “processing of caspase-1, GSDMD and IL-1β” value is on record as “still inhibited processing”. In addition, at human GSDMD-3C, the “inhibition of leakage by GSDMD-3C plus 3C protease versus GSDMD plus caspase-11” value is “substantially less able to inhibit leakage”.

For the molecule `CCN(CC)C(=S)SSC(=S)N(CC)CC` [C-23, Tetraethylthiuram disulfide], the “nigericin-induced IL-1β secretion” value with IL-1β was “potency comparable to the pan-caspase inhibitor z-VAD-fmk”. For the same molecule, the “C191S GSDMD-induced cell death (LDH release)” value in the experiment with HEK293T cells (caspase-11 plus C191S GSDMD) is “only inhibited when 4 times as much disulfiram was added”. Moreover, the “WT GSDMD-induced cell death (LDH release)” value with HEK293T cells (caspase-11 plus WT GSDMD) is recorded as “strongly inhibited”. For the same molecule, the “caspase-1, GSDMD, pro-IL-1β processing and IL-1β secretion” value is “completely blocked” in experiment [1] (1 μM with copper gluconate) and “had no effect” in experiment [1] (1 μM without copper).
